Experimental data taken from ChEMBL document CHEMBL3044945, “Synthesis of 1,3,5-trisubstituted pyrazoline nucleus containing compounds and screening for antimicrobial activity” (2012).
In brackets after ≈: the same amount, converted by molar mass.

Legend:
Format in all cases: functional
[1] = test system: Bacillus subtilis; test: Antibacterial activity against Bacillus subtilis MTCC 441 at 1250 ug/ml after 48 hr by cup-plate method; settings: MTCC 441, 48 h, read-out: DIZ
[2] = test system: Bacillus subtilis; test: Antibacterial activity against Bacillus subtilis MTCC 441 at 1000 ug/ml after 48 hr by cup-plate method; settings: MTCC 441, 48 h, read-out: DIZ
[3] = test system: Bacillus subtilis; test: Antibacterial activity against Bacillus subtilis MTCC 441 at 750 ug/ml after 48 hr by cup-plate method; settings: MTCC 441, 48 h, read-out: DIZ
[4] = test system: Bacillus subtilis; test: Antibacterial activity against Bacillus subtilis MTCC 441 at 100 ug/ml after 48 hr by cup-plate method; settings: MTCC 441, 48 h, read-out: DIZ
[5] = test system: Penicillium chrysogenum; test: Antifungal activity against Penicillium chrysogenum MTCC 161 after 24 to 48 hr by tube dilution method
[6] = test system: Aspergillus niger; test: Antifungal activity against Aspergillus niger MTCC 2546 after 24 to 48 hr by tube dilution method
[7] = test system: Pseudomonas fluorescens; test: Antibacterial activity against Pseudomonas fluorescens MTCC 2421 after 24 to 48 hr by tube dilution method
[8] = test system: Bacillus pumilus; test: Antibacterial activity against Bacillus pumilus MTCC 1456 after 24 to 48 hr by tube dilution method
[9] = test system: Pseudomonas aeruginosa; test: Antibacterial activity against Pseudomonas aeruginosa MTCC 424 after 24 to 48 hr by tube dilution method
[10] = test system: Staphylococcus aureus; test: Antibacterial activity against Staphylococcus aureus MTCC 1430 after 24 to 48 hr by tube dilution method
[11] = test system: Bacillus subtilis; test: Antibacterial activity against Bacillus subtilis MTCC 441 after 24 to 48 hr by tube dilution method
[12] = test system: Penicillium chrysogenum; test: Antifungal activity against Penicillium chrysogenum MTCC 161 at 1250 ug/ml after 48 hr by cup-plate method; settings: MTCC 161, 48 h, read-out: DIZ
[13] = test system: Penicillium chrysogenum; test: Antifungal activity against Penicillium chrysogenum MTCC 161 at 1000 ug/ml after 48 hr by cup-plate method; settings: MTCC 161, 48 h, read-out: DIZ
[14] = test system: Penicillium chrysogenum; test: Antifungal activity against Penicillium chrysogenum MTCC 161 at 500 ug/ml after 48 hr by cup-plate method; settings: MTCC 161, 48 h, read-out: DIZ
[15] = test system: Penicillium chrysogenum; test: Antifungal activity against Penicillium chrysogenum MTCC 161 at 250 ug/ml after 48 hr by cup-plate method; settings: MTCC 161, 48 h, read-out: DIZ
[16] = test system: Penicillium chrysogenum; test: Antifungal activity against Penicillium chrysogenum MTCC 161 at 100 ug/ml after 48 hr by cup-plate method; settings: MTCC 161, 48 h, read-out: DIZ
[17] = test system: Aspergillus niger; test: Antifungal activity against Aspergillus niger MTCC 2546 at 1250 ug/ml after 48 hr by cup-plate method; settings: MTCC 2546, 48 h, read-out: DIZ
[18] = test system: Aspergillus niger; test: Antifungal activity against Aspergillus niger MTCC 2546 at 1000 ug/ml after 48 hr by cup-plate method; settings: MTCC 2546, 48 h, read-out: DIZ
[19] = test system: Aspergillus niger; test: Antifungal activity against Aspergillus niger MTCC 2546 at 100 ug/ml after 48 hr by cup-plate method; settings: MTCC 2546, 48 h, read-out: DIZ
[20] = test system: Pseudomonas fluorescens; test: Antibacterial activity against Pseudomonas fluorescens MTCC 2421 at 1250 ug/ml after 48 hr by cup-plate method; settings: MTCC 2421, 48 h, read-out: DIZ
[21] = test system: Pseudomonas fluorescens; test: Antibacterial activity against Pseudomonas fluorescens MTCC 2421 at 1000 ug/ml after 48 hr by cup-plate method; settings: MTCC 2421, 48 h, read-out: DIZ
[22] = test system: Pseudomonas fluorescens; test: Antibacterial activity against Pseudomonas fluorescens MTCC 2421 at 750 ug/ml after 48 hr by cup-plate method; settings: MTCC 2421, 48 h, read-out: DIZ
[23] = test system: Pseudomonas fluorescens; test: Antibacterial activity against Pseudomonas fluorescens MTCC 2421 at 500 ug/ml after 48 hr by cup-plate method; settings: MTCC 2421, 48 h, read-out: DIZ
[24] = test system: Pseudomonas fluorescens; test: Antibacterial activity against Pseudomonas fluorescens MTCC 2421 at 250 ug/ml after 48 hr by cup-plate method; settings: MTCC 2421, 48 h, read-out: DIZ
[25] = test system: Pseudomonas fluorescens; test: Antibacterial activity against Pseudomonas fluorescens MTCC 2421 at 100 ug/ml after 48 hr by cup-plate method; settings: MTCC 2421, 48 h, read-out: DIZ
[26] = test system: Escherichia coli; test: Antibacterial activity against Escherichia coli MTCC 1573 at 1250 ug/ml after 48 hr by cup-plate method; settings: MTCC 1573, 48 h, read-out: DIZ
[27] = test system: Escherichia coli; test: Antibacterial activity against Escherichia coli MTCC 1573 at 1000 ug/ml after 48 hr by cup-plate method; settings: MTCC 1573, 48 h, read-out: DIZ
[28] = test system: Escherichia coli; test: Antibacterial activity against Escherichia coli MTCC 1573 at 750 ug/ml after 48 hr by cup-plate method; settings: MTCC 1573, 48 h, read-out: DIZ
[29] = test system: Micrococcus luteus; test: Antibacterial activity against Micrococcus luteus MTCC 1538 at 1000 ug/ml after 48 hr by cup-plate method; settings: MTCC 1538, 48 h, read-out: DIZ
[30] = test system: Micrococcus luteus; test: Antibacterial activity against Micrococcus luteus MTCC 1538 at 750 ug/ml after 48 hr by cup-plate method; settings: MTCC 1538, 48 h, read-out: DIZ
[31] = test system: Escherichia coli; test: Antibacterial activity against Escherichia coli MTCC 1573 at 500 ug/ml after 48 hr by cup-plate method; settings: MTCC 1573, 48 h, read-out: DIZ
[32] = test system: Escherichia coli; test: Antibacterial activity against Escherichia coli MTCC 1573 at 100 ug/ml after 48 hr by cup-plate method; settings: MTCC 1573, 48 h, read-out: DIZ
[33] = test system: Escherichia coli; test: Antibacterial activity against Escherichia coli MTCC 1573 at 250 ug/ml after 48 hr by cup-plate method; settings: MTCC 1573, 48 h, read-out: DIZ
[34] = test system: Micrococcus luteus; test: Antibacterial activity against Micrococcus luteus MTCC 1538 at 1250 ug/ml after 48 hr by cup-plate method; settings: MTCC 1538, 48 h, read-out: DIZ
[35] = test system: Micrococcus luteus; test: Antibacterial activity against Micrococcus luteus MTCC 1538 at 500 ug/ml after 48 hr by cup-plate method; settings: MTCC 1538, 48 h, read-out: DIZ
[36] = test system: Micrococcus luteus; test: Antibacterial activity against Micrococcus luteus MTCC 1538 at 250 ug/ml after 48 hr by cup-plate method; settings: MTCC 1538, 48 h, read-out: DIZ
[37] = test system: Bacillus pumilus; test: Antibacterial activity against Bacillus pumilus MTCC 1456 at 750 ug/ml after 48 hr by cup-plate method; settings: MTCC 1456, 48 h, read-out: DIZ
[38] = test system: Bacillus pumilus; test: Antibacterial activity against Bacillus pumilus MTCC 1456 at 500 ug/ml after 48 hr by cup-plate method; settings: MTCC 1456, 48 h, read-out: DIZ
[39] = test system: Bacillus pumilus; test: Antibacterial activity against Bacillus pumilus MTCC 1456 at 250 ug/ml after 48 hr by cup-plate method; settings: MTCC 1456, 48 h, read-out: DIZ
[40] = test system: Staphylococcus aureus; test: Antibacterial activity against Staphylococcus aureus MTCC 1430 at 1000 ug/ml after 48 hr by cup-plate method; settings: MTCC 1430, 48 h, read-out: DIZ
[41] = test system: Staphylococcus aureus; test: Antibacterial activity against Staphylococcus aureus MTCC 1430 at 500 ug/ml after 48 hr by cup-plate method; settings: MTCC 1430, 48 h, read-out: DIZ
[42] = test system: Pseudomonas aeruginosa; test: Antibacterial activity against Pseudomonas aeruginosa MTCC 424 at 1250 ug/ml after 48 hr by cup-plate method; settings: MTCC 424, 48 h, read-out: DIZ
[43] = test system: Pseudomonas aeruginosa; test: Antibacterial activity against Pseudomonas aeruginosa MTCC 424 at 1000 ug/ml after 48 hr by cup-plate method; settings: MTCC 424, 48 h, read-out: DIZ
[44] = test system: Pseudomonas aeruginosa; test: Antibacterial activity against Pseudomonas aeruginosa MTCC 424 at 750 ug/ml after 48 hr by cup-plate method; settings: MTCC 424, 48 h, read-out: DIZ

For `O=[N+]([O-])c1ccc(C2CC(c3cccc4ccccc34)=NN2c2ccccc2)cc1` (centres undefined), the zone of inhibition at 1250 µg/mL [1] was 21 mm, the zone of inhibition at 1000 µg/mL [2] was 19 mm and the zone of inhibition at 750 µg/mL [3] was 17 mm. For the same molecule, the zone of inhibition at 100 µg/mL [4] was 12 mm, the MIC [5] was 30 µg/mL (≈ 76.2 µM) and the MIC [6] was 30 µg/mL (≈ 76.2 µM). The MIC [7] was 30 µg/mL (≈ 76.2 µM), the MIC [8] was 150 µg/mL (≈ 381 µM) and the MIC [9] was 50 µg/mL (≈ 127 µM). The MIC [10] was 150 µg/mL (≈ 381 µM), the MIC [11] was 50 µg/mL (≈ 127 µM) and the zone of inhibition at 1250 µg/mL [12] was 18 mm. The zone of inhibition at 1000 µg/mL [13] was 16 mm, the zone of inhibition at 500 µg/mL [14] was 13 mm and the zone of inhibition at 250 µg/mL [15] was 12 mm. The zone of inhibition at 100 µg/mL [16] was 10 mm, the zone of inhibition at 1250 µg/mL [17] was 23 mm and the zone of inhibition at 1000 µg/mL [18] was 21 mm. It also gave a zone of inhibition at 100 µg/mL [19] of 10 mm, a zone of inhibition at 1250 µg/mL [20] of 19 mm and a zone of inhibition at 1000 µg/mL [21] of 16 mm. It also gave a zone of inhibition at 750 µg/mL [22] of 13 mm, a zone of inhibition at 500 µg/mL [23] of 10 mm and a zone of inhibition at 250 µg/mL [24] of 9 mm. It also gave a zone of inhibition at 100 µg/mL [25] of 8 mm, a zone of inhibition at 1250 µg/mL [26] of 18 mm and a zone of inhibition at 1000 µg/mL [27] of 15 mm. The zone of inhibition at 750 µg/mL [28] was 13 mm, the zone of inhibition at 1000 µg/mL [29] was 13 mm and the zone of inhibition at 750 µg/mL [30] was 11 mm. It also gave a zone of inhibition at 500 µg/mL [31] of 11 mm, a zone of inhibition at 100 µg/mL [32] of 9 mm and a zone of inhibition at 250 µg/mL [33] of 10 mm. The zone of inhibition at 1250 µg/mL [34] was 17 mm, the zone of inhibition at 500 µg/mL [35] was 9 mm and the zone of inhibition at 250 µg/mL [36] was 8 mm. The zone of inhibition at 750 µg/mL [37] was 14 mm, the zone of inhibition at 500 µg/mL [38] was 10 mm and the zone of inhibition at 250 µg/mL [39] was 9 mm. The zone of inhibition at 1000 µg/mL [40] was 15 mm, the zone of inhibition at 500 µg/mL [41] was 11 mm and the zone of inhibition at 1250 µg/mL [42] was 20 mm. It also gave a zone of inhibition at 1000 µg/mL [43] of 17 mm and a zone of inhibition at 750 µg/mL [44] of 14 mm.
